Experimental data reported in patent US20190124918A1, “BIOFILM FORMATION INHIBITOR AND BIOFILM FORMATION INHIBITING COMPOSITION” (KAO CORPORATION, priority 2016, published 2019).

Key:
Type in all cases: cell-based
[1] = test system: cooling water taken from a water cooling tower; test: Aqueous system model (annular reactor): amount of biofilm formed on test pieces (OD570); settings: Test Example 4; 15 ppm in cooling water, 30° C.; solvent control finally beyond 0.7
Method: Biofilm formation inhibitory activity of p-toluquinone (Tokyo Kasei) was evaluated by an aqueous system model using an annular reactor (Art Science Co., Ltd.) having a 100 mL-volume culture tank. In the culture tank of the annular reactor, a cylindrical rotating body rotating at a speed of 160 rounds per minute was installed. To the rotating body, 12 test pieces were attached in advance. These test pieces were taken out at predetermined time intervals and biofilm formed on the test pieces was quantified. From a water cooling tower provided on a building rooftop and actually used, cooling water was taken and supplied to the annular reactor culture vessel (maintained at 30° C.) at a flow rate of 10 mL per minute; at the same time, an ethanol solution (15 g/L) of p-toluquinone was separately supplied to the annular reactor culture vessel by a syringe pump YSP-201 (manufactured by YMC) at a flow rate of 10 μL per minute (p-toluquinone concentration in cooling water in the culture tank was 15 ppm). The test pieces (n=2) taken out from the culture tank at predetermined time intervals were stained with 0.1% crystal violet, thoroughly washed twice with physiological saline and recovered in ethanol (15 mL). The absorbance (OD570) was measured to obtain the amount of the biofilm formed. […] Thereafter, the number of bacteria cells was measured. […]

[2] = test system: biofilm-forming microbe isolated from cooling water taken from a water cooling tower; test: Biofilm inhibition test, quinone-based compound and organic solvent (OD570); settings: alone or added as test solution in organic solvent, no addition gave 2.831
Method: A biofilm-forming microbe (microbe providing a OD570 value of 0.3 or more in the test for determining the amount of biofilm in the following section 4-3) isolated from cooling water taken from a water cooling tower was cultured in R2A culture medium at 30° C. for 16 hours while shaking. The turbidity (OD600) of the resultant culture solution was measured. The culture solution was diluted with R2A culture medium to prepare a suspension of 10^3 cfu/mL.
The suspension of a test microbe prepared in the above section 4-1) was added in individual wells of a 96 well microplate in an amount of 150 μL. Thereafter, the test solution prepared in the above section 2) was add and culture was initiated.
The 96 well microplate was subjected to stationary culture performed at 30° C. for 48 hours. The culture solution was removed and the resultant microplate was washed with water. Subsequently, each well was stained with 0.1% crystal violet and 200 μL of ethanol was added. The absorbance (OD570) was measured to obtain the amount of biofilm (BF) formed.

[3] = test system: Pseudomonas PAO1 strain (ATCC 15692); test: Growth of test microbe (turbidity OD600), 96-well microplate culture
Procedure, shortened: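 P. aeruginosa PAO1 diluted in Mueller Hinton Broth, exposed to test compound (ethanol stock evaporated onto DMSO in wells) and grown static at 30° C for 24 h; growth read as OD600. Growth inhibition % = (1 − compound OD600/ethanol-control OD600) × 100.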

With `CC1=CC(=O)C=CC1=O` [Compound a, p-Toluquinone] the “amount of the biofilm formed (OD570)” value [1] was no more than 0.2, the OD570 ([2]; Toluquinone 10 ppm) was 0.119 and the OD570 ([2]; Toluquinone 20 ppm) was 0.083. For the same compound, the “Growth OD600” value ([3]; final concentration 7 ppm, EtOH control 0.5913) was 0.645, the “Growth inhibition (%)” value ([3]; final concentration 17 ppm) was 14.2% and the “Growth OD600” value ([3]; final concentration 20 ppm, EtOH control 0.6346) was 0.5907. The “Growth inhibition (%)” value ([3]; final concentration 33 ppm) was 15.4%, the “Growth OD600” value ([3]; final concentration 33 ppm, EtOH control 0.668) was 0.6284 and the “Growth inhibition (%)” value ([3]; final concentration 66 ppm) was “— (No growth inhibition or no BF inhibition)”. The “Growth OD600” value ([3]; final concentration 67 ppm, EtOH control 0.628) was 0.5489, the “Growth inhibition (%)” value ([3]; final concentration 99 ppm) was “— (No growth inhibition or no BF inhibition)” and the “Growth inhibition (%)” value ([3]; final concentration 116 ppm) was 1.8%. For the same compound, the “Growth inhibition (%)” value ([3]; final concentration 132 ppm) was 1.2%, the “Growth OD600” value ([3]; final concentration 200 ppm, EtOH control 0.6045) was 0.3857 and the “Growth OD600” value ([3]; final concentration 333 ppm, EtOH control 0.6088) was 0.3334. The “microbial growth (in words)” value ([3]; high concentration range of 200 ppm or more) was “inhibited”.
